Experimental data from patent US12364786B2, “Polymer particles” (Terumo Corporation, priority 2016, dated 2025).

Test: In vitro elution of pharmaceutical agents from particles (Sotax USP 4 dissolution apparatus, HPLC)
Assay type: physicochemical
Method: For in vitro elution testing, drug was loaded on 1 mL samples of microspheres of approximately 400±100 micron diameter. Microsphere aliquots were loaded with 37.5 mg of doxorubicin in water or 50 mg of irinotecan in citrate buffer. Samples were incubated for 18 hours. Drug was eluted from the samples in a Sotax USP 4 dissolution apparatus. Samples were taken at incremental time intervals and analyzed by high performance liquid chromatography. Peak area was recorded (FIG. 4). Percent and concentration of drug eluted were calculated for each time interval.

[1] = 1 mL microsphere sample (approximately 400±100 micron diameter) loaded with 37.5 mg doxorubicin in water
[2] = 1 mL microsphere sample (approximately 400±100 micron diameter) loaded with 50 mg irinotecan in citrate buffer

Row | amount of drug eluted over the first day [1] [mg] | percent of drug eluted over the first day [1] [%] | amount of drug eluted over the first day [2] | percent of drug eluted over the first day [2] [%] | Structure (SMILES)
1 | 24.5 | 65 |  |  | COc1cccc2c1C(=O)c1c(O)c3c(c(O)c1C2=O)C[C@@](O)(C(=O)CO)C[C@@H]3O[C@H]1C[C@H](N)[C@H](O)[C@H](C)O1 [doxorubicin]
2 |  |  | over 45 mg | 95 | CCc1c2c(nc3ccc(OC(=O)N4CCC(N5CCCCC5)CC4)cc13)-c1cc3c(c(=O)n1C2)COC(=O)[C@]3(O)CC [irinotecan]
